Experimental data reported in BindingDB's records for doi:10.1021/jm9804127 (Glaxo Wellcome Research and Development, 1999).

Molecular target: T1, Peroxisome proliferator-activated receptor gamma (Homo sapiens, UniProt P37231)
T1 sequence (P37231 whole entry): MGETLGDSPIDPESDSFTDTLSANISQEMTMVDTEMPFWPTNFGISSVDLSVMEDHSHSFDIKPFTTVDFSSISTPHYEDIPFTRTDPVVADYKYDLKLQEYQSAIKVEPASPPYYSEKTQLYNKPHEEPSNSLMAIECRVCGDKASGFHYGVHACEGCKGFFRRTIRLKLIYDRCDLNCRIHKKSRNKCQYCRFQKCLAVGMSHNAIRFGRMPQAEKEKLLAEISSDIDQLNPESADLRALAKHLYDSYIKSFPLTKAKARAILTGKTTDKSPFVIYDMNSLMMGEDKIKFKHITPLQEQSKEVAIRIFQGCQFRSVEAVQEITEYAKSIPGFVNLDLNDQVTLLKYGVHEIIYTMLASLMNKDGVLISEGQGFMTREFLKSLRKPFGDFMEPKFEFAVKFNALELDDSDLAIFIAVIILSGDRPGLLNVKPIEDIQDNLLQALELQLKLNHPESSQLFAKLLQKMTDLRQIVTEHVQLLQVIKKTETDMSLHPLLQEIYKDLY
Experiment: Ability to promote differentiation of C3H10T1/2 stem cells to adipocytes using lipogenesis assay mediated through activation of Peroxisome proliferator activated receptor gamma

EC50	Structure (SMILES)
1230 nM	CN(CCOc1ccc(CC(Nc2ccccc2C(N=N)c2ccccc2)C(=O)O)cc1)c1ccccn1 (configuration not stated)

Molecular target: not listed separately
Experiment: Ability to promote differentiation of C3H10T1/2 stem cells to adipocytes using lipogenesis assay mediated through activation of Peroxisome proliferator activated receptor gamma

Structure (SMILES)	EC50
CN(CCOc1ccc(CC(Nc2ccccc2C(O)c2ccccc2)C(=O)O)cc1)c1ccccn1 (configuration not stated)	1320 nM
CC1(COc2ccc(C[C@H](Nc3ccccc3C(=O)c3ccccc3)C(=O)O)cc2)CCCCC1	1150 nM
Cc1c(C)c2c(c(C)c1O)CCC(C)(COc1ccc(C[C@H](Nc3ccccc3C(=O)c3ccccc3)C(=O)O)cc1)O2 (some centres not stated)	363 nM
CCc1ccc(CCOc2ccc(C[C@H](Nc3ccccc3C(=O)c3ccccc3)C(=O)O)cc2)nc1	501 nM
O=C(c1ccccc1)c1ccccc1N[C@@H](Cc1ccc(OCc2ccccc2)cc1)C(=O)O	1510 nM

The next lines start with the values.

EC50	Structure (SMILES)
468 nM	CN(CCOc1ccc(CC(Nc2ccccc2Oc2ccccc2)C(=O)O)cc1)c1nc2ccccc2o1 (configuration not stated)
4.4 nM	CN(CCOc1ccc(C[C@H](Nc2ccccc2C(=O)c2ccccc2)C(=O)O)cc1)c1nc2ccccc2o1
575 nM	CN(CCOc1ccc(CC(Nc2cccc3c2C(=O)c2ccccc2-3)C(=O)O)cc1)c1nc2ccccc2o1 (configuration not stated)
47 nM	CN(CCOc1ccc(CC(Nc2ccccc2C(=O)Cc2ccccc2)C(=O)O)cc1)c1nc2ccccc2o1 (configuration not stated)
1150 nM	CN(CCOc1ccc(CC(Oc2ccccc2C(=O)c2ccccc2)C(=O)O)cc1)c1nc2ccccc2o1 (configuration not stated)
2190 nM	CN(CCOc1ccc(CC(Nc2ccccc2S(=O)(=O)c2ccccc2)C(=O)O)cc1)c1nc2ccccc2o1 (configuration not stated)
